Reference: US12649059B2, “Methods for reducing bleeding in hemophilia by vagus nerve stimulation to prime platelets” (The Feinstein Institutes for Medical Research, priority 2022, dated 2026)
Read-outs that look alike come from different tables or passages of the source.

Experiments:
[1] = test system: a7nAChR
Text: (§1) To confirm platelet a7nAChR modulates hemostasis, we first administered the pharmacological a7nAChR agonist nicotine to wild-type mice before tail injury. […] To restrict a7nAChR to platelets, we transferred platelets from wild-type or a7KO donor mice into a7nAChR-deficient animals before tail transection.
(§2) Mice are screened before study inclusion to ensure visual similarity and consistency between the anatomy of the tail tips and the site of transection. […] Following vagus nerve stimulation or sham surgery, tails are immersed in water at 37+1° C. for five minutes. Tails are then removed from the solution, amputated 2 mm from the tip with a razor blade, and immediately placed into a 50 mL beaker containing water at 37+1° C. Tails are allowed to bleed uncontrolled until bleeding stops for a minimum of ten seconds. This duration of bleeding is recorded as bleeding time. For analyses of bleeding in factor VIII deficient mice, tails are first immersed in 0.9% saline at 37±1° C. for five minutes. Tails are then removed and amputated 2 mm from the tip with a razor blade. Tails are then placed into a 50 mL conical tube containing 0.9% saline at 37±1° C. Tails are allowed to bleed freely for a total of ten minutes. Total blood loss is determined by densitometry by measuring absorbance at 550 nm. A standard curve is created from a known volume of blood.

[2] = biological target: a7nAChR (Mus musculus, UniProt P49582)
Text: as §1, §2

Chain of a7nAChR (Mus musculus, UniProt P49582) (P49582 23-502): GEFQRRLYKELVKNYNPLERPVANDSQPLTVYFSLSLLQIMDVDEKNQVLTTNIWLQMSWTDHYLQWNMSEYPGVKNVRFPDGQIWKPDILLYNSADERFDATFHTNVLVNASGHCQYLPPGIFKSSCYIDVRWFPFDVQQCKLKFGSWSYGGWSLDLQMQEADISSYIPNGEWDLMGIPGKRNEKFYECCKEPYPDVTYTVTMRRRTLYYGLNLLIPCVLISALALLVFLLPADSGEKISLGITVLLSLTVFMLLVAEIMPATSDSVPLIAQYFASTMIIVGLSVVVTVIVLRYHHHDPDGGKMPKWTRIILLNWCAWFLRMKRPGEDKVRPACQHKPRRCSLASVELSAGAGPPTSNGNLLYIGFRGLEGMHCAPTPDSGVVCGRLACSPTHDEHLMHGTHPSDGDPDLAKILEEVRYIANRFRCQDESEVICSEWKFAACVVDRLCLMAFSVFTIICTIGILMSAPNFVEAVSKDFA

## CN1CCCC1c1cccnc1 (stereo not shown) [nicotine]
[1]; a7nAChR-deficient mice receiving platelets from a7KO donors, FIG. 2H
  bleeding time as compared with vehicle treatment: not
[1]; a7nAChR-deficient mice, nicotine before tail transection, FIG. 2G
  bleeding time as compared with vehicle treatment: fails to reduce bleeding time
[2]; a7nAChR-deficient mice reconstituted with wild-type platelets, FIG. 2H, p<0.05 vs. vehicle control
  bleeding time as compared with vehicle treatment: significantly reduces bleeding time
[2]; wild-type mice, nicotine before tail injury, FIG. 2G, p<0.01 vs. vehicle control
  bleeding time as compared with vehicle treatment: significantly decreases bleeding time
